Assay results: paper PMC9570838, “JND4135, a New Type II TRK Inhibitor, Overcomes TRK xDFG and Other Mutation Resistance In Vitro and In Vivo” (Molecules, 2022)

Legend:
[1] = molecular target: T1, TRKC (Homo sapiens, UniProt Q16288); test: FRET-based Z'-Lyte kinase assay; assay type: biochemical; conditions: mean ± SD, read-out: IC50 TRKC kinase inhibition
T1 construct: purchased Invitrogen
Procedure: (§1) TRKA/B/C and the Z′-Lyte Kinase Assay Kit were purchased from Invitrogen. Assays were performed according to the manufacturer’s instructions. […] The solutions of the compounds were diluted from 10^−10 M to […] in DMSO and a 400 μM solution of the compound was prepared with 4 μL of the solution of the compound dissolved in 96 μL water. […] For each assay, 10 μL of a kinase solution, including 2.5 μL of the compound solution, 5 μL of the kinase/peptide mixture, and 2.5 μL of the ATP solution was prepared. The plate wells were mixed thoroughly and incubated for 1 h at room temperature (rt). Then 5 μL of the development solution was added to each well and the plate was incubated for 1 h at rt; the […] were cleaved in this time. Finally, 5 μL of stop reagent was added to stop the reaction. For the control setting, 5 μL of the phosphopeptide solution instead of the kinase/peptide mixture was used as a 100% phosphorylation control. […] The plate was measured on an EnVision Multilabel Reader (Perkin-Elmer). Curve fitting and data presentation was performed using GraphPad Prism, version 5.0. Every experiment was repeated at least 2 times.

[2] = molecular target: TRKA-G667C (Homo sapiens, UniProt P04629, G667C); test: FRET-based Z'-Lyte kinase assay; assay type: biochemical
Procedure: as §1

[3] = molecular target: T2, TRKB (Homo sapiens, UniProt Q16620); test: FRET-based Z'-Lyte kinase assay; assay type: biochemical; conditions: mean ± SD, read-out: IC50 TRKB kinase inhibition
T2 construct: purchased Invitrogen
Procedure: as §1

[4] = system: BaF3 QKI-TRKB; test: BaF3 cell proliferation, CCK-8 assay; conditions: Mus musculus, BaF3, 72 h, read-out: IC50 (nM ± SD) WT QKI-TRKB
Procedure: (§2) Murine BaF3 cells were purchased from JRCB cell bank. The BaF3 cell lines, which stably express natively-fused TRKA/B/C or various point mutants, were self-established by following previously described procedures. Briefly, NTRK genes were totally synthesized and cloned into pCDNA3.1(+) vectors (Invitrogen, Carlsbad, CA, USA). […] Stable strains were established by selection of cells 2 weeks post-transfection with 800 μg/mL G418 (Merck, Whitehouse Station, NJ) and further selection after the withdrawal of interleukin-3 (IL-3, R&D) for 2 weeks. All of BaF3 stable cell lines were verified by DNA sequencing, protein expression and anti-proliferation activity against positive drugs. […] All cells were grown at 37 °C in a humidified 5% CO2 atmosphere.
(§3) Cells were placed in 96-well plates (5000~8000/well) in complete medium. […] IC50 values were calculated by concentration-response curve fitting using GraphPad Prism 5.0 software. Each IC50 value is expressed as mean ± SD.

[5] = system: Parental BaF3 (+IL3); test: BaF3 cell proliferation, CCK-8 assay; conditions: Mus musculus, BaF3, 72 h, read-out: IC50 (nM ± SD) Parental BaF3 (+IL3)
Procedure: as §2, §3

[6] = system: BaF3 cells with solvent front mutations (TRKA^G595R, TRKB^G639R, TRKC^G623R); test: BaF3 cell proliferation, summary over solvent front lines; conditions: Mus musculus, BaF3, read-out: IC50 range in cells with solvent front mutations
Procedure: as §2, §3

[7] = system: BaF3 CD74-TRKA-G667C; test: BaF3 cell proliferation, CCK-8 assay; conditions: Mus musculus, BaF3, 72 h, read-out: IC50 (nM ± SD) xDFG CD74-TRKA-G667C
Procedure: as §2, §3

[8] = system: BaF3 ETV6-TRKC-G623R; test: BaF3 cell proliferation, CCK-8 assay; conditions: Mus musculus, BaF3, 72 h, read-out: IC50 (nM ± SD) Solvent Front ETV6-TRKC-G623R
Procedure: as §2, §3

[9] = system: BaF3 ETV6-TRKC-F617L; test: BaF3 cell proliferation, CCK-8 assay; conditions: Mus musculus, BaF3, 72 h, read-out: IC50 (nM ± SD) Gatekeeper ETV6-TRKC-F617L
Procedure: as §2, §3

[10] = system: BaF3-CD74-TRKA-G667C xenograft; test: BaF3-CD74-TRKA-G667C xenograft model; assay type: in vivo; conditions: for TGI (tumor growth inhibition): intraperitoneally once daily, 12 consecutive days
[11] = system: BaF3 ETV6-TRKB; test: BaF3 cell proliferation, CCK-8 assay; conditions: Mus musculus, BaF3, 72 h, read-out: IC50 (nM ± SD) WT ETV6-TRKB
Procedure: as §2, §3

[12] = system: BaF3 cells with gatekeeper mutations (TRKA^F589L, TRKB^F663L, TRKC^F617L); test: BaF3 cell proliferation, summary over gatekeeper lines; conditions: Mus musculus, BaF3, read-out: IC50 in cells with gatekeeper mutations
Procedure: as §2, §3

[13] = system: TRKs-xDGF mutants TRKA-G667C, TRKB-G709C and TRKC-G696C in stable BaF3 models; test: Western blot of xDFG mutant TRK signal pathway (Figure S2); assay type: cell-based, Murine; conditions: 6 h
Procedure: Cells were treated with various concentrations of each tested compound for a designated time. Then cells were lysed using 1 × SDS sample lysis buffer (CST recommended) with protease and phosphatase inhibitors. […] The films were blocked with 5% fat-free milk in TBS solution containing 0.5% Tween-20 for 4 h at room temperature, then incubated with the corresponding primary antibody (1:1000–1:200) overnight at 4 °C. After washing with TBST, HRP-conjugated secondary antibody was incubated for 2 h. The protein signals were visualized by ECL Western Blotting Detection Kit (Thermo Scientific, Waltham, MA, USA), and detected with Amersham Imager 600 system (GE, Boston, MA, USA).

[14] = molecular target: T3, TRKA (Homo sapiens, UniProt P04629); test: FRET-based Z'-Lyte kinase assay; assay type: biochemical; conditions: mean ± SD, read-out: IC50 TRKA kinase inhibition
T3 construct: purchased Invitrogen

[15] = system: BaF3 cells harboring wild-type TRKA/B/C; test: BaF3 cell proliferation, summary over wild-type lines; conditions: Mus musculus, BaF3, read-out: IC50 range in BaF3 cells harboring wild-type TRKA/B/C
From the text: Murine BaF3 cells were purchased from JRCB cell bank. The BaF3 cell lines, which stably express natively-fused TRKA/B/C or various point mutants, were self-established by following previously described procedures. Briefly, NTRK genes were totally synthesized and cloned into pCDNA3.1(+) vectors (Invitrogen, Carlsbad, CA, USA). The pCDNA3.1(+) plasmids containing different NTRK-fusion genes were introduced into BaF3 cells by electroporation (Amaxa Nucleofector II device) using the “Amaxa Cell Line Nucleofector Kit V” (VCA-1003) according to the manufacturer’s directions. Stable strains were established by selection of cells 2 weeks post-transfection with 800 μg/mL G418 (Merck, Whitehouse Station, NJ) and further selection after the withdrawal of interleukin-3 (IL-3, R&D) for 2 weeks. All of BaF3 stable cell lines were verified by DNA sequencing, protein expression and anti-proliferation activity against positive drugs. […]
as §3

[16] = system: BaF3 CD74-TRKA-G595R; test: BaF3 cell proliferation, CCK-8 assay; conditions: Mus musculus, BaF3, 72 h, read-out: IC50 (nM ± SD) Solvent Front CD74-TRKA-G595R
Procedure: as §2, §3

[17] = system: BaF3 CD74-TRKA-F589L; test: BaF3 cell proliferation, CCK-8 assay; conditions: Mus musculus, BaF3, 72 h, read-out: IC50 (nM ± SD) Gatekeeper CD74-TRKA-F589L
Procedure: as §2, §3

With `Cc1c(C#Cc2cnc3cnc(-c4ccc(N)cc4)cn23)cccc1C(=O)Nc1cc(CN2CCN(C)CC2)cc(C(C)C)c1` [JND4135, 3-((6-(4-aminophenyl)imidazo[1,2-a]pyrazin-3-yl)ethynyl)-N-(3-isopropyl-5-((4-methylpiperazin-1-yl)methyl)phenyl)-2-methylbenzamide] the IC50 [1] was 3.01 ± 0.43 nM, the “fold stronger kinase inhibition of TRKA-G667C than TRKA-WT” value [2] was 3.3 fold and the IC50 ([2]; Z'-Lyte, mean ± SD, read-out: IC50 TRKA-G667C kinase inhibition) was 0.83 ± 0.06 nM. It also gave an IC50 [3] of 3.19 ± 1.76 nM, an IC50 [4] of 2.4 ± 0.6 nM and an IC50 [5] of 1950 ± 25.1 nM. It also gave an IC50 [6] of 9.4 to 33.7 nM, an IC50 [7] of 1.4 ± 0.2 nM and an IC50 [8] of 9.4 ± 2.6 nM. For the same molecule, the IC50 [9] was 37.3 ± 14 nM, the “TGI (tumor growth inhibition)” value ([10]; 20 mg/kg) was 34.2% and the “TGI (tumor growth inhibition)” value ([10]; 40 mg/kg) was 81.0%. The “tolerability (mortality, body weight)” value ([10]; 20 and 40 mg/kg/day, 12 days) was “no mortality or significant body weight loss”, the “activation of TRKA and downstream molecules PLCγ-1 and ERK in tumor tissues” value ([10]; tumor tissues at end of treatment, Western blot) was “effectively inhibit” and the IC50 [11] was 23.1 ± 5.9 nM. The IC50 [12] was 37.3 to 178 nM, the “dose that effectively inhibits the activation of TRKs-xDGF mutants” value [13] was 8.0 nM and the IC50 [14] was 2.79 ± 1.17 nM. For the same molecule, the IC50 [15] was 2.4 to 23.1 nM, the IC50 [16] was 33.7 ± 7.1 nM and the IC50 [17] was 75 ± 12.7 nM.
